According to patent US8404805B2, “Characterization of GRP94-ligand interactions and purification, screening, and therapeutic methods relating thereto” (Duke University, priority 2000, dated 2013):

Legend:
GRP94 [1] = target: T1, GRP94 (Sus scrofa, UniProt Q29092); test: Polarity-sensitive fluorescent probe binding to GRP94 (fluorescence emission); design: GRP94 was purified from porcine pancreas; from tissue; host or cells: porcine pancreas (rough microsomes); species or system porcine; settings: for probe interaction with native versus heat shocked GRP94 (emission spectra): 0.5 μM GRP94, 5 μM probe, 30 min at 37° C.
Protocol: Fluorescent probes were obtained from Molecular Probes (Eugene, Oreg.). […] All other reagents were obtained from Sigma Chemical Co. (St. Louis, Mo.) unless otherwise indicated. […] Fluorophore Binding Reactions. […] For all assays, control reactions at solvent dilutions identical to experimental conditions were performed to correct for any solvent effects. […] Fluorescence Measurements. Emission spectra were obtained in a FLUOROMAXTM spectrofluorometer (SPEX Industries Inc. of Edison, N.J.) operating in photon counting mode. Spectra were recorded and processed with DM3000f operating software, version 2.1 (SPEX Industries Inc. of Edison, N.J.). For emission scans, slit width was set at 1 nm. […] All spectra were background corrected.

HSP90 [2] = settings: Prodromou et al. (1997); cited from earlier work
GRP94 [3] = target: T1, GRP94; test: [3H]-NECA competitive displacement assay; settings: for competition with [3H]-NECA for binding to GRP94: nominal (80 μM) Mg2+; for relative affinities of binding to GRP94 in excess Mg2+: 10 mM Mg(OAc)2; for effect of excess Mg2+ on binding to GRP94: 10 mM Mg(OAc)2 versus nominal magnesium; for relative affinity of GRP94 for the nucleotide: NECA displacement; for binding to GRP94, nucleoside base specificity by [3H]-NECA displacement: competitors at 50 μM
Protocol: (§3) Where indicated, binding reactions were performed in either buffer C (10 mM Tris, pH 7.5, 50 mM KCl, 5 mM MgCl2, 2 mM DTT, 0.01% NP-40, 20 mM Na2MoO4) or 50 mM Tris, pH 7.5, 10 mM Mg(OAc)2. […] Vacuum filtration was performed with an Amersham Pharmacia Biotech (Piscataway, N.J.) vacuum filtration manifold.

GRP94 [4] = target: T1, GRP94; test: Tryptophan fluorescence of GRP94 (tertiary conformational state); assay type: biochemical, porcine; design: GRP94 was purified from porcine pancreas; from tissue; host or cells: porcine pancreas (rough microsomes); settings: 50 μM NECA, 50 μM geldanamycin, 2.5 mM ATP or 2.5 mM ADP, 1 hour at 37° C., excitation 295 nm
Protocol: Tryptophan Fluorescence. Tryptophan fluorescence measurements were conducted in a FLUOROMAX™ spectrofluorometer (Spex Industries, Inc. of Edison, N.J.) with the slit widths set to 1 nm for both excitation and emission. […] All spectra were corrected by subtraction of buffer or buffer plus ligand samples. […] Samples were then cooled to room temperature, transferred to a quartz cuvette, and the spectra collected.

BiP [5] = test: [32P]ATP binding assay; design: species or system porcine; settings: 50 μM [32P]ATP, 1 hour on ice
Protocol: (§1) ATP Binding Assay. Six:g of GRP94, BiP, and Hsp90 was incubated with 50:M (-[^32P] ATP (1000 ΦCi/Φmol) (Amersham Pharmacia Biotech of Piscataway, N.J.) in buffer B on ice for 1 hour. Nitrocellulose filters (BA85) (Schleicher & Schuell of Keene, N.H.) were individually wet in buffer B before use, and bound versus free [^32P]-ATP was separated by vacuum filtration. Filters were washed with 3×2 mL of ice cold buffer B, placed in 5 mL of scintillation fluid, vortexed, and counted.

Hsp90 [6] = test: [32P]ATP binding assay; design: species or system rat; settings: 50 μM [32P]ATP, 1 hour on ice
Protocol: as §1

GRP94 [7] = target: T1, GRP94; test: [32P]ATP binding assay; design: GRP94 was purified from porcine pancreas; from tissue; host or cells: porcine pancreas (rough microsomes); species or system porcine; settings: 50 μM [32P]ATP, 1 hour on ice
Protocol: as §1

casein kinase II = casein kinase II (Homo sapiens, UniProt P68400); test: Casein kinase assay; assay type: biochemical; settings: 180 μM NECA or radicicol in 3.6% DMSO, 5 μg/ml heparin, 5 mM GTP
Protocol: (§2) Phosphorylation Assays. […] For the casein kinase assay, 1 unit of casein kinase II was incubated as described above, with the addition of 4:M casein. […] The 25:I reaction mixtures were incubated at 37° C. for 1 hour and quenched by addition of 10% trichloroacetic acid. Samples were analyzed by 10% SDS-PAGE gels and the phosphorylated species were quantitated using a Fuji MACBAS1000™ phosphorimaging system (Fuji Medical Systems of Stamford, Conn.).

GRP94 [8] = target: T1, GRP94; test: GRP94 autophosphorylation assay; assay type: biochemical, porcine; design: GRP94 was purified from porcine pancreas; from tissue; host or cells: porcine pancreas (rough microsomes); settings: 180 μM NECA or radicicol in 3.6% DMSO, 5 μg/ml heparin, 5 mM GTP
Protocol: as §2

GRP94 [9] = target: T1, GRP94; test: [3H]-NECA binding assay (vacuum filtration)
Protocol: as §3

BiP [10] = test: [3H]-NECA binding assay (vacuum filtration); settings: 20 nM [3H]-NECA, 60 min on ice
Protocol: as §3

GRP94 [11] = target: T1, GRP94; test: Isothermal titration calorimetry; assay type: binding, porcine; design: GRP94 was purified from porcine pancreas; from tissue; host or cells: porcine pancreas (rough microsomes); settings: 5 μM GRP94, 152 μM NECA stock, 25° C.
Protocol: Isothermal calorimetry experiments were performed at 25° C. using a MSC calorimeter (MicroCal Inc. of Northampton, Mass.). […] Necessary corrections were made by subtracting the heats of dilution resulting from buffer addition to protein solution and ligand solution into buffer.

GRP94 [12] = target: T1, GRP94; test: ATPase assay (HPLC); assay type: biochemical, porcine; design: GRP94 was purified from porcine pancreas; from tissue; host or cells: porcine pancreas (rough microsomes)
Protocol: Samples were then spun through a CENTRICON®-30 (Amicon of Beverly, Mass.) at 10,000 rpm, 4° C. to separate protein from nucleotide. A final concentration of 50 mM (NH4)2HPO4, pH 7.0, and 4:M AMP, pH 7.0, was added to dilutions of the above samples and centrifuged at 15,200 rpm for 5 minutes at 4° C. 100:L of supernatant was then fractionated on a […] column (Alltech of Deerfield, Ill.), using a Series 1050 Hewlett Packard HPLC system. Elution of nucleotides was performed by step gradient elution using a mobile phase of 150 mM (NH4)2HPO4, pH 5.2, at 1.2 ml/min for the first ten minutes, followed by 300 mM (NH4)2HPO4, pH 5.2, at a flow rate of 2 ml/min for the remainder of the elution. In this protocol, ADP and ATP were well resolved, with ADP eluting at 7 minutes and ATP at 12 minutes. Peak height values were used in calculations of percent hydrolysis and ADP formation. Spontaneous hydrolysis was determined for each ATP concentration in paired incubations lacking GRP94. The AMP was used as an internal reference standard to control for equivalent sample loading.

HSP90 [13] = target: HSP90 (Saccharomyces cerevisiae, UniProt P02829); settings: Roe et al. (1999); cited from earlier work
Chain of HSP90 (Saccharomyces cerevisiae, UniProt P02829) (P02829 whole entry): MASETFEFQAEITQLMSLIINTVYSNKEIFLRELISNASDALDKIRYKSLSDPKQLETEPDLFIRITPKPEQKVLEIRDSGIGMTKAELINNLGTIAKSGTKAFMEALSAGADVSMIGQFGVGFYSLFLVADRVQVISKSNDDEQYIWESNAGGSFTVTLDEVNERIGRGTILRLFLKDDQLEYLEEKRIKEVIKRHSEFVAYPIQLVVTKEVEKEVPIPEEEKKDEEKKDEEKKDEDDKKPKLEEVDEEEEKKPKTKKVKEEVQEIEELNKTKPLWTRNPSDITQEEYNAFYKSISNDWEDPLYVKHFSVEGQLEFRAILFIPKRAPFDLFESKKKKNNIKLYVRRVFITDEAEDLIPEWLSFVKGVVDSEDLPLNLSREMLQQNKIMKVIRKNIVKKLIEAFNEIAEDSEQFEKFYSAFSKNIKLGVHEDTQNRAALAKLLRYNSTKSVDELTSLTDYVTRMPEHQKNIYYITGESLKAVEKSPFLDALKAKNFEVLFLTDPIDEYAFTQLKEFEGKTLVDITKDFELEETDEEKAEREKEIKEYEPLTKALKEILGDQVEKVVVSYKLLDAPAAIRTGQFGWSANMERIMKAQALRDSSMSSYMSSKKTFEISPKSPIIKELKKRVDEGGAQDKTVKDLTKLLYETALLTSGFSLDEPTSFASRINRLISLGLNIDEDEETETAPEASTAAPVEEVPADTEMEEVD

Chain of casein kinase II (P68400 whole entry): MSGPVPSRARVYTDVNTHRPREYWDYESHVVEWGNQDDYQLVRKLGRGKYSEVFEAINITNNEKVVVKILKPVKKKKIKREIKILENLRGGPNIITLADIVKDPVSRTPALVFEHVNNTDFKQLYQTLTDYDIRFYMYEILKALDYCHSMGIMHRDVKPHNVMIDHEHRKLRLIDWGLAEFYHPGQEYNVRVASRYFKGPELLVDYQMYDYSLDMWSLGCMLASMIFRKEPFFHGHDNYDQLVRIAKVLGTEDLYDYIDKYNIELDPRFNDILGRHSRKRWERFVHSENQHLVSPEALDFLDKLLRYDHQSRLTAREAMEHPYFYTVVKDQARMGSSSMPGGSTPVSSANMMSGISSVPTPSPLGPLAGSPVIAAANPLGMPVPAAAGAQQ
Chain of casein kinase II (P67870 whole entry partner): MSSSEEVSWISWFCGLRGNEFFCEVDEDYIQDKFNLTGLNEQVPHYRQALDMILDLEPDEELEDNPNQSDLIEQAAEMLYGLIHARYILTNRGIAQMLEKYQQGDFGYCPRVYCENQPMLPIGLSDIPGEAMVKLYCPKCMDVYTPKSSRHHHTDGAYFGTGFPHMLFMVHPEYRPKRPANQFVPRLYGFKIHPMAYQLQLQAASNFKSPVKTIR
T1 sequence (Q29092 22-804): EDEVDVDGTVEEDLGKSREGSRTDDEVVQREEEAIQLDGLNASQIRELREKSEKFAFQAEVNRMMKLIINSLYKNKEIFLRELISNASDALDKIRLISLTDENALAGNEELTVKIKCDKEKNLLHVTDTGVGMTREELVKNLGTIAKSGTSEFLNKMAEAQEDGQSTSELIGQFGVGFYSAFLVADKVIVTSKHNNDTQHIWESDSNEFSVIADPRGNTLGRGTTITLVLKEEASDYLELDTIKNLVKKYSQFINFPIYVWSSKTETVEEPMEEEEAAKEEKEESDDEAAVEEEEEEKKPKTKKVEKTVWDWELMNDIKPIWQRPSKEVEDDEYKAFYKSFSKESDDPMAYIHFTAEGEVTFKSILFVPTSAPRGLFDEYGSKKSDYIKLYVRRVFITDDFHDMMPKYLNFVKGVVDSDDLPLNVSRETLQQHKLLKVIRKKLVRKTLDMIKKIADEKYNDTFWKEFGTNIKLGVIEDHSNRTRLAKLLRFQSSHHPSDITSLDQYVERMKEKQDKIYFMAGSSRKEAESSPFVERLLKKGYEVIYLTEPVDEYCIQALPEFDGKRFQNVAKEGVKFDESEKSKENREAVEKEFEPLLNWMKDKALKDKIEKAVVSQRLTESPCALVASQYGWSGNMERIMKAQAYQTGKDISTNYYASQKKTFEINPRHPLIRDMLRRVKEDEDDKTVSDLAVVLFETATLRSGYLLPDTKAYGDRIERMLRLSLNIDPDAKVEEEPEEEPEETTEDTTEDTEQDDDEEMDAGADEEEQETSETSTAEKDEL

O=S(=O)(O)c1cccc2cccc(Nc3ccccc3)c12 [8-ANS, 1,8-anilinonaphthalenesulfonate]
agonist activity for GRP94 activation (GRP94 [1]): lacks agonist activity
probe interaction with native versus heat shocked GRP94 (emission spectra) (GRP94 [1]): displays weak interactions with native GRP94, yet binds avidly following heat shock

Nc1ncnc2c1ncn2[C@@H]1O[C@H](COP(=O)(O)OP(=O)(O)O)[C@@H](O)[C@H]1O [ADP]
affinity of N-terminal domain of Hsp90 for ADP relative to ATP (HSP90 [2]): four
competition with [3H]-NECA for binding to GRP94 (GRP94 [3]; 20 nM [3H]-NECA): effectively competed
relative affinities of binding to GRP94 in excess Mg2+ (GRP94 [3]): nearly identical relative affinities
effect of excess Mg2+ on binding to GRP94 (GRP94 [3]): markedly stimulated
relative affinity of GRP94 for the nucleotide (GRP94 [3]): quite low
change of GRP94 tryptophan fluorescence (GRP94 [4]): decreased

Nc1ncnc2c1ncn2[C@@H]1O[C@H](COP(=O)(O)O)[C@@H](O)[C@H]1O [AMP]
competition with [3H]-NECA for binding to GRP94 (GRP94 [3]; 20 nM [3H]-NECA): effectively competed
effect of excess Mg2+ on binding to GRP94 (GRP94 [3]): markedly stimulated
relative affinity of GRP94 for the nucleotide (GRP94 [3]): quite low

Nc1ncnc2c1ncn2[C@@H]1O[C@H](COP(=O)(O)OP(=O)(O)OP(=O)(O)O)[C@@H](O)[C@H]1O [ATP]
ATP binding (BiP [5]): displayed the expected ATP binding activity
ATP binding (Hsp90 [6]): no ATP binding was observed
molar excess required for 50% inhibition of [3H]-NECA binding (GRP94 [3]; 20 nM [3H]-NECA): ~1000 -fold molar excess
competition with [3H]-NECA for binding to GRP94 (GRP94 [3]; 20 nM [3H]-NECA): effectively competed
relative affinities of binding to GRP94 in excess Mg2+ (GRP94 [3]): nearly identical relative affinities
effect of excess Mg2+ on binding to GRP94 (GRP94 [3]): markedly stimulated
relative affinity of GRP94 for the nucleotide (GRP94 [3]): quite low
binding to GRP94, nucleoside base specificity by [3H]-NECA displacement (GRP94 [3]; 20 nM [3H]-NECA): could bind
efficacy of competing NECA binding, ATP relative to ADP (GRP94 [3]; nominal Mg2+): eight
ATP binding (GRP94 [7]): no ATP binding was observed
change of GRP94 tryptophan fluorescence (GRP94 [4]): decreased

Nc1ccn([C@@H]2O[C@H](COP(=O)(O)OP(=O)(O)OP(=O)(O)O)[C@@H](O)[C@H]2O)c(=O)n1 [CTP]
binding to GRP94, nucleoside base specificity by [3H]-NECA displacement (GRP94 [3]; 20 nM [3H]-NECA): little to no binding

Nc1nc2c(ncn2[C@@H]2O[C@H](COP(=O)(O)OP(=O)(O)OP(=O)(O)O)[C@@H](O)[C@H]2O)c(=O)[nH]1 [GTP]
effect on casein kinase II activity (casein kinase II): markedly attenuated
binding to GRP94, nucleoside base specificity by [3H]-NECA displacement (GRP94 [3]; 20 nM [3H]-NECA): little to no binding
effect on GRP94 autophosphorylation (GRP94-derived kinase) activity (GRP94 [8]): markedly attenuated

CCNC(=O)[C@H]1O[C@@H](n2cnc3c(N)ncnc32)[C@H](O)[C@@H]1O [NECA, N-ethylcarboxamidoadenosine]
effect on casein kinase II activity (casein kinase II): neither NECA nor radicicol, both of which bind to the N-terminal nucleotide binding domain of GRP94, significantly inhibit GRP94 derived or casein kinase II activity below the solvent background
effect of excess Mg2+ on binding to GRP94 (GRP94 [3]): without effect
slope of Hill plot (GRP94 [9]): 1.2
[3H]-NECA binding activity (GRP94 [9]; 20 nM [3H]-NECA, 60 min on ice): readily detectable
binding stoichiometry (GRP94 [9]; radioligand, vacuum filtration): 0.5 mol [^3H]-NECA/mol GRP94 monomer
[3H]-NECA binding activity (BiP [10]): not observed
binding stoichiometry by isothermal titration calorimetry (GRP94 [11]): 1.1 mol NECA/mol GRP94 dimer
effect on GRP94 autophosphorylation (GRP94-derived kinase) activity (GRP94 [8]): neither NECA nor radicicol, both of which bind to the N-terminal nucleotide binding domain of GRP94, significantly inhibit GRP94 derived or casein kinase II activity below the solvent background
effect on GRP94 ATPase activity (GRP94 [12]): sensitive to inhibition by NECA
change of GRP94 tryptophan fluorescence (GRP94 [4]): increased the tryptophan fluorescence

CCC(=O)c1ccc2cc(N(C)C)ccc2c1 [Prodan, 6-propionyl-2-(dimethylamino)naphthalene]
probe interaction with native versus heat shocked GRP94 (emission spectra) (GRP94 [1]): does not interact with the hydrophobic binding pocket(s) displayed by heat shocked GRP94

O=c1ccn([C@@H]2O[C@H](COP(=O)(O)OP(=O)(O)OP(=O)(O)O)[C@@H](O)[C@H]2O)c(=O)[nH]1 [UTP]
binding to GRP94, nucleoside base specificity by [3H]-NECA displacement (GRP94 [3]; 20 nM [3H]-NECA): little to no binding

Nc1ncnc2c1ncn2[C@@H]1O[C@H](CO)[C@@H](O)[C@H]1O [adenosine]
relative displacement activity of [3H]-NECA (GRP94 [3]; 20 nM [3H]-NECA): approximating that observed for ADP
effect of excess Mg2+ on binding to GRP94 (GRP94 [3]): without effect

Nc1ncnc2c1ncn2[C@H]1C[C@H](O)[C@@H](COP(=O)(O)OP(=O)(O)OP(=O)(O)O)O1 [deoxyATP]
binding to GRP94, nucleoside base specificity by [3H]-NECA displacement (GRP94 [3]; 20 nM [3H]-NECA): could bind

C[C@@H]1C[C@H]2O[C@@H]2/C=C\C=C\C(=O)Cc2c(Cl)c(O)cc(O)c2C(=O)O1 [radicicol]
effect on casein kinase II activity (casein kinase II): neither NECA nor radicicol, both of which bind to the N-terminal nucleotide binding domain of GRP94, significantly inhibit GRP94 derived or casein kinase II activity below the solvent background
expected binding stoichiometry (HSP90 [13]): 2 mol radicicol/mol Hsp90 dimer

heparin
effect on casein kinase II activity (casein kinase II): markedly attenuated
effect on GRP94 autophosphorylation (GRP94-derived kinase) activity (GRP94 [8]): markedly attenuated
